Test results taken from US7713971B2, “1,2,4-triazine derivatives, preparation and use thereof in human therapy” (Pierre Fabre Medicament, priority 2005, dated 2010).
pEC50: −log10 of the molar value. Like-named read-outs stand apart in the source and are kept apart here.

Experiments:
human PPARγ = molecular target: T1, human PPARγ (Homo sapiens, UniProt P37231); test: Reporter gene transactivation, hPPAR-GAL4 gamma; type: cell-based; conditions: transfected Cos-7 cells, Gal-4 luciferase reporter, 24 hours treatment
T1 construct: expressed in transfected cells; host or cells: Cos-7 cells (ATCC, CRL-1651)
T1 sequence (P37231 238-503 limits assumed): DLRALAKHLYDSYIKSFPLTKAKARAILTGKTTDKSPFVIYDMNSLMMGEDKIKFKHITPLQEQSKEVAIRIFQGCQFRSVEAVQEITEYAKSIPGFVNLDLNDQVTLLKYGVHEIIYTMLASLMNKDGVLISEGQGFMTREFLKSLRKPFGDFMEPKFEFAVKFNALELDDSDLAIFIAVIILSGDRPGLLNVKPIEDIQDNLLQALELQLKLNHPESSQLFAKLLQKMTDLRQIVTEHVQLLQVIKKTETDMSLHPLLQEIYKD

human PPARα = molecular target: T2, human PPARα (Homo sapiens, UniProt Q07869); test: Reporter gene transactivation, hPPAR-GAL4 alpha; type: cell-based; conditions: transfected Cos-7 cells, Gal-4 luciferase reporter, 24 hours treatment
T2 construct: expressed in transfected cells; host or cells: Cos-7 cells (ATCC, CRL-1651)
T2 sequence (Q07869 239-466 limits assumed): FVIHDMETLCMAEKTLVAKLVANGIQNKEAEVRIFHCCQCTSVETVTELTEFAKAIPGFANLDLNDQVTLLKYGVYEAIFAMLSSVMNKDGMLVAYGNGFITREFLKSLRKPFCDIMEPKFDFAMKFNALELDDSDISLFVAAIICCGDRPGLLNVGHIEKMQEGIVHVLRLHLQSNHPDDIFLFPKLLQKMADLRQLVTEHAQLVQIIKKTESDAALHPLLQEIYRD

[1] = test system: insulin-resistant male rat (Ico: ZUCKER-fa/fa); test: Normalization of metabolic parameters (cholesterol, plasma triglycerides) in insulin-resistant rat; type: in vivo; conditions: oral route, once per day for four days, Zucker fa/fa rat unfed 16-18 hours; for change in vivo at 2.5 mg/kg / change in vivo at 10 mg/kg: 96 h
Method: Normalization of metabolic parameters (cholesterol, plasma triglycerides) in an insulin-resistant male rat (Ico: ZUCKER-fa/fa), unfed for 16-18 hours, after treatment by oral route, once per day for four days, with the compounds to be evaluated or their administration vehicle.
These metabolic parameters are measured by spectrophotometry at the beginning and the end of each animal's treatment.

[2] = at 10 mg/kg, read-out: Plasma cholesterol
[3] = at 10 mg/kg, read-out: Plasma triglycerides

| Structure (SMILES) | pEC50 (human PPARγ) | pEC50 (human PPARα) | other results |
| --- | --- | --- | --- |
| CCCCCCCn1nc(OCCCOc2cccc(OC(C)(C)C(=O)OCC)c2)c(=O)n(C)c1=O [Example 33, Ethyl 2-{3-[3-(2-heptyl-4-methyl-3,5-dioxo-2,3,4,5-tetrahydro-[1,2,4]triazin-6-yloxy)-propoxy]-phenoxy}-2-methyl-propionate] | ~5.52 | ~5.52 | – |
| CCCCCCCn1c(=O)c(NCCCCc2cccc(OC(C)(C)C(=O)OCC)c2)nn(C/C=C/C(=O)OCC)c1=O [Example 87, Ethyl 4-(6-{4-[3-(1-ethoxycarbonyl-1-methyl-ethoxy)-phenyl]-butylamino}-4-heptyl-3,5-dioxo-4,5-dihydro-3H-[1,2,4]triazin-2-yl)-but-2-enonate] | 6.52 to 7.00 | ~6.52 | – |
| CCOC(=O)C(C)(C)Sc1cccc(CCCCNc2nn(CCCC(F)(F)F)c(=O)n(Cc3ccccc3)c2=O)c1 [Example 100, Ethyl 2-(3-{4-[4-Benzyl-3,5-dioxo-2-(4,4,4-trifluoro-butyl)-2,3,4,5-tetrahydro-[1,2,4]triazin-6-ylamino]-butyl}-phenylsulfanyl)-2-methyl-propionate] | < 5.00 | 5.52 to 6.00 | – |
| CCCCCCCn1nc(OCCCc2cccc(OC(C)(C)C(=O)OCC)c2)c(=O)n(C)c1=O [Example 5, Ethyl 2-{3-[3-(2-heptyl-4-methyl-3,5-dioxo-2,3,4,5-tetrahydro-[1,2,4]triazin-6-yloxy)-propyl]-phenoxy}-2-methyl-propionate] | ~5.00 | ~5.52 | – |
| CCCCCCCn1nc(OCCc2cccc(OC(C)(C)C(=O)OCC)c2)c(=O)n(C)c1=O [Example 2, Ethyl 2-{3-[2-(2-heptyl-4-methyl-3,5-dioxo-2,3,4,5-tetrahydro-[1,2,4]triazin-6-yloxy)-ethyl]-phenoxy}-2-methyl-propionate] | ~5.00 | < 5.00 | – |
| CCOC(=O)C(C)(C)Oc1ccc(CCNc2nn(CCCC3CCCCC3)c(=O)n(CCCC(F)(F)F)c2=O)cc1 [Example 105, Ethyl 2-(4-{2-[2-(3-cyclohexyl-propyl)-3,5-dioxo-4-(4,4,4-trifluoro-butyl)-2,3,4,5-tetrahydro-[1,2,4]triazin-6-ylamino]-ethyl}-phenoxy)-2-methyl-propionate] | ~5.00 | 5.52 to 6.00 | – |
| CCCCCCCn1c(=O)c(NCCCCc2cccc(OC(C)(C)C(=O)OCC)c2)nn(CCC#N)c1=O [Example 86, Ethyl 2-(3-{4-[2-(2-cyano-ethyl)-4-heptyl-3,5-dioxo-2,3,4,5-tetrahydro-[1,2,4]triazin-6-ylamino]-butyl}-phenoxy)-2-methyl-propionate] | ~6.00 | < 5.00 | – |
| CCCCCCCn1nc(NCCCc2ccc(SC(C)(C)C(=O)OCC)cc2)c(=O)n(C)c1=O [Example 124, Ethyl 2-{4-[3-(2-heptyl-4-methyl-3,5-dioxo-2,3,4,5-tetrahydro-[1,2,4]triazin-6-ylamino)propyl]-phenylsulfanyl}-2-methyl-propionate] | < 5.00 | 6.00 to 6.52 | – |
| CCCCCCCn1c(=O)c(OCCCc2cccc(OC(C)(C)C(=O)OCC)c2)nn(C)c1=O [Example 7, Ethyl 2-{3-[3-(4-heptyl-2-methyl-3,5-dioxo-2,3,4,5-tetrahydro-[1,2,4]triazin-6-yloxy)-propyl]-phenoxy}-2-methyl-propionate] | 5.52 to 6.00 | 6.00 to 6.52 | – |
| CCCCCCCN(CCCOc1ccc(SC(C)(C)C(=O)OCC)cc1)c1nn(C)c(=O)n(C)c1=O [Example 53, Ethyl 2-(4-{3-[(2,4-Dimethyl-3,5-dioxo-2,3,4,5-tetrahydro-[1,2,4]triazin-6-yl)-heptyl-amino]-propoxy}-phenylsulfanyl)-2-methyl-propionate] | – | 5.52 to 6.00 | change in vivo at 2.5 mg/kg ([1]; read-out: Plasma cholesterol): -7%; change in vivo at 10 mg/kg [1, 2]: -28%; Plasma triglycerides ([1]; at 10 mg/kg): inactive at 10 |
| CCCCCCCn1nc(OCCc2ccc(OC(C)(C)C(=O)OCC)cc2)c(=O)n(C)c1=O [Example 25, Ethyl 2-{4-[2-(2-heptyl-4-methyl-3,5-dioxo-2,3,4,5-tetrahydro-[1,2,4]triazin-6-yloxy)-ethyl]-phenoxy}-2-methyl-propionate] | < 5.00 | – | – |
| CCCCCCCn1c(=O)c(NCCc2cccc(OC(C)(C)C(=O)OCC)c2)nn(CCCC(F)(F)F)c1=O [Example 60, Ethyl 2-(3-{2-[4-heptyl-3,5-dioxo-2-(4,4,4-trifluoro-butyl)-2,3,4,5-tetrahydro-[1,2,4]triazin-6-ylamino]-ethyl}-phenoxy)-2-methyl-propionate] | – | < 5.00 | – |
| CCCCCCCn1c(=O)c(NCCc2cccc(OC(C)(C)C(=O)OCC)c2)nn(C)c1=O [Example 59, Ethyl 2-{3-[2-(4-heptyl-2-methyl-3,5-dioxo-2,3,4,5-tetrahydro-[1,2,4]triazin-6-ylamino)-ethyl]-phenoxy}-2-methyl-propionate] | – | 5.52 to 6.00 | change in vivo at 2.5 mg/kg ([1]; read-out: Plasma cholesterol): -37%; change in vivo at 2.5 mg/kg ([1]; read-out: Plasma triglycerides): -13% |
| CCOC(=O)C(C)(C)Oc1cccc(CCCNc2nn(CCCC(F)(F)F)c(=O)n(C)c2=O)c1 [Example 62, Ethyl 2-methyl-2-(3-{3-[4-methyl-3,5-dioxo-2-(4,4,4-trifluoro-butyl)-2,3,4,5-tetrahydro-[1,2,4]triazin-6-ylamino]-propyl}-phenoxy)-propionate] | – | < 5.00 | – |
| CCCCCCCn1nc(NCCCCc2cccc(SC(C)(C)C(=O)OCC)c2)c(=O)n(Cc2ccccc2)c1=O [Example 101, Ethyl 2-{3-[4-(4-benzyl-2-heptyl-3,5-dioxo-2,3,4,5-tetrahydro-[1,2,4]triazin-6-ylamino)-butyl]-phenylsulfanyl}-2-methyl-propionate] | – | 5.52 to 6.00 | – |
| CCOC(=O)C(C)(C)Oc1ccccc1CCNc1nn(CCCC(F)(F)F)c(=O)n(CCCC(F)(F)F)c1=O [Example 55, Ethyl 2-(2-{2-[3,5-Dioxo-2,4-bis-(4,4,4-trifluoro-butyl)-2,3,4,5-tetrahydro-[1,2,4]triazin-6-ylamino]-ethyl}-phenoxy)-2-methyl-propionate] | – | < 5.00 | – |
| CCCCCCCn1c(=O)c(NCCCCc2cccc(SC(C)(C)C(=O)OCC)c2)nn(CCCC(F)(F)F)c1=O [Example 97, Ethyl 2-(3-{4-[4-heptyl-3,5-dioxo-2-(4,4,4-trifluoro-butyl)-2,3,4,5-tetrahydro-[1,2,4]triazin-6-ylamino]-butyl}-phenylsulfanyl)-2-methyl-propionate] | – | 5.52 to 6.00 | – |
| CCOC(=O)C(C)(C)Oc1ccc(OCCCNc2nn(C)c(=O)n(CCCC(F)(F)F)c2=O)cc1 [Example 46, Ethyl 2-methyl-2-(4-{3-[2-methyl-3,5-dioxo-4-(4,4,4-trifluoro-butyl)-2,3,4,5-tetrahydro-[1,2,4]triazin-6-ylamino]-propoxy}-phenoxy)-propionate] | – | 6.00 to 6.52 | change in vivo at 10 mg/kg [1, 2]: -13%; change in vivo at 10 mg/kg [1, 3]: -32% |
| CCCCCCCn1c(=O)c(NCCCc2cccc(OC(C)(C)C(=O)OCC)c2)nn(C)c1=O [Example 67, Ethyl 2-{3-[3-(4-heptyl-2-methyl-3,5-dioxo-2,3,4,5-tetrahydro-[1,2,4]triazin-6-ylamino)-propyl]-phenoxy}-2-methyl-propionate] | – | ~6.00 | change in vivo at 10 mg/kg [1, 2]: -14%; change in vivo at 10 mg/kg [1, 3]: -23% |
| CCCCCCCn1c(=O)c(OCCc2ccc(OC(C)(C)C(=O)OCC)cc2)nn(C)c1=O [Example 26, Ethyl 2-{4-[2-(4-heptyl-2-methyl-3,5-dioxo-2,3,4,5-tetrahydro-[1,2,4]triazin-6-yloxy)-ethyl]-phenoxy}-2-methyl-propionate] | – | < 5.00 | – |
| CCOC(=O)C(C)(C)Oc1ccc(COc2nn(C)c(=O)n(CCCC(F)(F)F)c2=O)cc1 [Example 21, Ethyl 2-methyl-2-{4-[2-methyl-3,5-dioxo-4-(4,4,4-trifluoro-butyl)-2,3,4,5-tetrahydro-[1,2,4]triazin-6-yloxymethyl]-phenoxy}-propionate] | – | 5.00 to 5.52 | – |
| CCCCCCCn1c(=O)c(NCCc2ccc(OC(C)(C)C(=O)OCC)cc2)nn(CCCC(F)(F)F)c1=O [Example 107, Ethyl 2-(4-{2-[4-heptyl-3,5-dioxo-2-(4,4,4-trifluoro-butyl)-2,3,4,5-tetrahydro-[1,2,4]triazin-6-ylamino]-ethyl}-phenoxy)-2-methyl-propionate] | – | ~6.00 | – |
| CCOC(=O)C(C)(C)Oc1cccc(CCCOc2nn(CCCC(F)(F)F)c(=O)n(C)c2=O)c1 [Example 4, Ethyl 2-methyl-2-(3-{3-[4-methyl-3,5-dioxo-2-(4,4,4-trifluoro-butyl)-2,3,4,5-tetrahydro-[1,2,4]triazin-6-yloxy]-propyl}-phenoxy)-propionate] | – | < 5.00 | – |
